Where a name gives a salt, the structure may show the parent alone.
Assay: in vitro skin flux of asimadoline through human cadaver epidermis
Format: in vitro ADME
Conditions: representative range; depending on the drug form, permeation enhancer, and if an in-line adhesive is present
Procedure: Release of asimadoline from transdermal systems into aqueous medium was measured over 24 hours at 35° C. Each system had its exposed edges masked. The systems were then mounted on a Teflon® holder of a release rate rod using nylon mesh and nickel wire. A known volume of receptor solution (50 mM Na2PO4, pH 5.5) was then placed in a test tube and equilibrated at 35° C. The test tube was placed in a water bath and maintained at 35° C. The Teflon rod with attached system was then reciprocated within the test tube by attaching the rod to a motor which caused constant vertical mixing.
At given time intervals, the entire receptor solution was removed from the test tubes and replaced with an equal volume of fresh receptor solutions previously equilibrated at 35° C. The receptor solutions were stored in capped vials at 4° C. until assayed for asimadoline content by HPLC. From the drug concentration and the volume of the receptor solutions, the area of the system and the time interval, the release rate of the drug from the system was calculated as follows: (drug concentration×volume of receptor)/(area×time)=release rate (μg/cm^2 hr). […]
Transdermal systems set forth in Table 1 were prepared according to Example 1 and used to measure permeation through human cadaver skin. […] Asimadoline permeation through the epidermis was then measured according to the procedure set forth in Example 1. […]

CN(C(=O)C(c1ccccc1)c1ccccc1)[C@H](CN1CC[C@H](O)C1)c1ccccc1 [asimadoline hydrochloride, N-[(aS)-α-[[(3S)-3-Hydroxy-1-pyrrolidinyl]methyl]benzyl]-N-methyl-2,2-diphenylacetamide]
in vitro skin flux through human skin: 0.2-10 mg/cm^2·hr

Reference: patent US20010051181A1, “NOVEL FORMULATIONS FOR THE TRANSDERMAL ADMINISTRATION OF ASIMADOLINE” (priority 1997, published 2001)
